Several values for one entry are separate records, joined by “and”; a condition that tells them apart may be missing. Identical values can stand only once. Toxic doses and inconclusive results are not listed. The calls were made as follows: active = survival T/C of 150% or more; inactive = T/C below 125% in these data.
Test system: P388 leukemia ip, CD2F1 mice, survival T/C
Test: NCI In Vivo Anticancer Drug Screen. Data for tumor model P388 Leukemia (intraperitoneal) in CD2F1 (CDF1) mice
Settings: endpoint: median survival time, higher = longer survival
Summary of the method: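 Mice carrying the transplanted tumor received test compound or vehicle. Survival was recorded in each group, and the value is the treated-group measurement divided by that of the vehicle-treated control group.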

[1] = dose: 60.0 mg/kg/injection, schedule: Q01DX005 (ip), vehicle: Klucel (hydroxypropylcellulose) (HPC)
[2] = dose: 120.0 mg/kg/injection, schedule: Q01DX005 (ip), vehicle: Klucel (hydroxypropylcellulose) (HPC)
[3] = dose: 240.0 mg/kg/injection, schedule: Q01DX005 (ip), vehicle: Klucel (hydroxypropylcellulose) (HPC)
[4] = dose: 50.0 mg/kg/injection, schedule: Q01DX009 (ip), vehicle: saline with Tween-80
[5] = dose: 100.0 mg/kg/injection, schedule: Q01DX009 (ip), vehicle: saline with Tween-80
[6] = dose: 200.0 mg/kg/injection, schedule: Q01DX009 (ip), vehicle: saline with Tween-80
[7] = dose: 12.5 mg/kg/injection, schedule: Q01DX009 (ip), vehicle: saline with Tween-80
[8] = dose: 25.0 mg/kg/injection, schedule: Q01DX009 (ip), vehicle: saline with Tween-80
[9] = dose: 50.0 mg/kg/injection, schedule: Q01DX009 (ip), vehicle: saline
[10] = dose: 100.0 mg/kg/injection, schedule: Q01DX009 (ip), vehicle: saline
[11] = dose: 50.0 mg/kg/injection, schedule: Q01DX005 (ip), vehicle: Klucel (hydroxypropylcellulose) (HPC)
[12] = dose: 50.0 mg/kg/injection, schedule: Q04DX002 (ip), vehicle: saline with Tween-80
[13] = dose: 100.0 mg/kg/injection, schedule: Q04DX002 (ip), vehicle: saline with Tween-80

Measured: T/C

NC(COc1ccccc1)Cc1ccccc1 (configuration not stated)
inactive: dose: 12.5 mg/kg/injection, schedule: Q04DX003 (ip), vehicle: saline 100 % of control | dose: 25.0 mg/kg/injection, schedule: Q04DX003 (ip), vehicle: saline 100 % of control | dose: 50.0 mg/kg/injection, schedule: Q04DX003 (ip), vehicle: saline 102 % of control | dose: 100.0 mg/kg/injection, schedule: Q04DX003 (ip), vehicle: saline 99 % of control

CCC1(c2ccc(C)cc2)C(=O)NCNC1=O
inactive: [1] 102 % of control | [2] 102 % of control | [3] 100 % of control

CC1(c2ccc([N+](=O)[O-])cc2)OC(=O)C(=Cc2ccc([N+](=O)[O-])s2)C(=O)O1 (configuration not stated)
inactive: [4] 103 % of control | [5] 96 % of control | [6] 103 % of control

C[C@H]1C[C@H]2[C@@H]3CC[C@](O)(C(=O)CO)[C@@]3(C)C[C@H](O)[C@]2(F)[C@@]2(C)C=CC(=O)C=C12
inactive: [7] 95 % of control | [8] 104 % of control | [4] 104 % of control | dose: 100.0 mg/kg/injection, schedule: Q04DX003 (ip), vehicle: saline with Tween-80 109 % of control | dose: 200.0 mg/kg/injection, schedule: Q04DX003 (ip), vehicle: saline with Tween-80 109 % of control | dose: 400.0 mg/kg/injection, schedule: Q04DX003 (ip), vehicle: saline with Tween-80 90 % of control

CCCCCCCC/C=C\CCCCCCCC(=O)OC
inactive: dose: 177.0 mg/kg/injection, schedule: Q01DX009 (ip), vehicle: saline with Tween-80 109 % of control | dose: 266.0 mg/kg/injection, schedule: Q01DX009 (ip), vehicle: saline with Tween-80 116 % of control | dose: 400.0 mg/kg/injection, schedule: Q01DX009 (ip), vehicle: saline with Tween-80 106 % of control | dose: 600.0 mg/kg/injection, schedule: Q01DX009 (ip), vehicle: saline with Tween-80 107 % of control

CCCCn1c(O)c(/C=C2/C=Nc3ccccc32)sc1=O
inactive: [4] 95 % of control | [5] 95 % of control | [6] 97 % of control

O=C(SCc1oc2ccccc2c1O)c1ccccc1
inactive: [7] 103 % of control | [8] 104 % of control | [4] 112 % of control | [5] 94 % of control

CC[N](CC)[Ge]([CH2]C)[CH2]C.C[CH2][Ge]([CH2]C)[CH2]C
inactive: dose: 6.25 mg/kg/injection, schedule: Q01DX009 (ip), vehicle: saline 98 % of control and 109 % of control | dose: 12.5 mg/kg/injection, schedule: Q01DX009 (ip), vehicle: saline 98 % of control and 109 % of control | dose: 25.0 mg/kg/injection, schedule: Q01DX009 (ip), vehicle: saline 109 % of control and 114 % of control | [9] 121 % of control | [10] 118 % of control

Nc1cc(Cl)c(N(CCO)C2=NCCN2)c(Cl)c1
inactive: dose: 12.5 mg/kg/injection, schedule: Q01DX005 (ip), vehicle: Klucel (hydroxypropylcellulose) (HPC) 92 % of control | dose: 25.0 mg/kg/injection, schedule: Q01DX005 (ip), vehicle: Klucel (hydroxypropylcellulose) (HPC) 88 % of control | [11] 105 % of control and 89 % of control

CCCCCc1c(-c2n[nH]c(C)c2CCCCC)n[nH]c1C
inactive: [1] 92 % of control | [2] 96 % of control | [3] 100 % of control

C/C(=N\N=C(/[Se])N1CCCCCC1)c1ccccn1
inactive: dose: 25.0 mg/kg/injection, schedule: Q04DX003 (ip), vehicle: Klucel (hydroxypropylcellulose) (HPC) 110 % of control | dose: 50.0 mg/kg/injection, schedule: Q04DX003 (ip), vehicle: Klucel (hydroxypropylcellulose) (HPC) 118 % of control | dose: 200.0 mg/kg/injection, schedule: Q04DX003 (ip), vehicle: Klucel (hydroxypropylcellulose) (HPC) 86 % of control

O=c1c2c([nH]c3c4c(ccc13)NCCC4)CCC2
inactive: [12] 95 % of control | [13] 94 % of control | dose: 200.0 mg/kg/injection, schedule: Q04DX002 (ip), vehicle: saline with Tween-80 92 % of control

CN(C)c1nnn(Cc2ccccc2)n1
inactive: [11] 101 % of control | dose: 100.0 mg/kg/injection, schedule: Q01DX005 (ip), vehicle: Klucel (hydroxypropylcellulose) (HPC) 97 % of control | dose: 200.0 mg/kg/injection, schedule: Q01DX005 (ip), vehicle: Klucel (hydroxypropylcellulose) (HPC) 104 % of control

NC(Cc1ccccc1Br)c1nn[nH]n1 (configuration not stated)
inactive: [8] 97 % of control | [4] 104 % of control | [5] 114 % of control

CCOC(=O)c1ccc(NC(=O)Nc2nc3ccc(OC)cc3s2)cc1
inactive: dose: 25.0 mg/kg/injection, schedule: Q01DX009 (ip), vehicle: distilled water + Tween-80 91 % of control | dose: 50.0 mg/kg/injection, schedule: Q01DX009 (ip), vehicle: distilled water + Tween-80 89 % of control | dose: 100.0 mg/kg/injection, schedule: Q01DX009 (ip), vehicle: distilled water + Tween-80 91 % of control | dose: 200.0 mg/kg/injection, schedule: Q01DX009 (ip), vehicle: distilled water + Tween-80 89 % of control | dose: 400.0 mg/kg/injection, schedule: Q01DX009 (ip), vehicle: distilled water + Tween-80 89 % of control

OC(Cc1cncc(CC(O)(C(F)(F)F)C(F)(F)F)n1)(C(F)(F)F)C(F)(F)F
inactive: [9] 99 % of control | [10] 98 % of control | dose: 200.0 mg/kg/injection, schedule: Q01DX009 (ip), vehicle: saline 102 % of control

CO/C1=C\C(C)=C\C(C)C(O)C(C)C/C(C)=C/C=C/C(OC)C(C(C)C(O)C(C)C(=O)/C=C/C(C)C(C)O)OC1=O (configuration not stated)
inactive: dose: 6.25 mg/kg/injection, schedule: Q01DX005 (ip), vehicle: other 108 % of control | dose: 12.5 mg/kg/injection, schedule: Q01DX005 (ip), vehicle: other 98 % of control | dose: 25.0 mg/kg/injection, schedule: Q01DX005 (ip), vehicle: other 103 % of control | dose: 25.0 mg/kg/injection, schedule: Q01DX005 (ip), vehicle: saline + Tween-80 + alcohol 103 % of control | dose: 50.0 mg/kg/injection, schedule: Q01DX005 (ip), vehicle: other 106 % of control | dose: 50.0 mg/kg/injection, schedule: Q01DX005 (ip), vehicle: saline + Tween-80 + alcohol 94 % of control | dose: 100.0 mg/kg/injection, schedule: Q01DX005 (ip), vehicle: saline + Tween-80 + alcohol 94 % of control

Cn1c(N)c(C(=S)N2CCOCC2)c(=O)n(C)c1=O
inactive: dose: 25.0 mg/kg/injection, schedule: Q04DX002 (ip), vehicle: saline with Tween-80 100 % of control | [12] 104 % of control | [13] 104 % of control

Nc1nnn(-c2ccccc2)n1
inactive: dose: 100.0 mg/kg/injection, schedule: Q01DX001 (ip), vehicle: Klucel (hydroxypropylcellulose) (HPC) 102 % of control | dose: 200.0 mg/kg/injection, schedule: Q01DX001 (ip), vehicle: Klucel (hydroxypropylcellulose) (HPC) 101 % of control | dose: 400.0 mg/kg/injection, schedule: Q01DX001 (ip), vehicle: Klucel (hydroxypropylcellulose) (HPC) 102 % of control

Cc1cc(N(C)C)c2ccc3c(ccc4c(N(C)C)cc(C)nc43)c2n1
inactive: [8] 94 % of control | [5] 103 % of control | [6] 99 % of control

CCCC1CC[N-]CC1.CCCC1CC[N-]CC1.[Br][Pt+2]([Br])([Br])[Br]
inactive: dose: 1.56 mg/kg/injection, schedule: Q01DX009 (ip), vehicle: saline with Tween-80 94 % of control | dose: 3.13 mg/kg/injection, schedule: Q01DX009 (ip), vehicle: saline with Tween-80 87 % of control | dose: 6.25 mg/kg/injection, schedule: Q01DX009 (ip), vehicle: saline with Tween-80 95 % of control | [7] 98 % of control | [8] 123 % of control

CNc1ccccc1C(=O)NN=C1c2ccccc2-c2ccccc21
inactive: [4] 100 % of control | [5] 106 % of control | [6] 99 % of control

Reference: PubChem BioAssay AID330 (DTP/NCI, 2004)
